For one assay, the target named is T1, Aurora A (Homo sapiens, UniProt O14965).
T1 construct: histidine tag (N); made in house; host or cells: Escherichia coli BL21-CodonPlus(DE3)-RIL
T1 sequence (O14965 1-403): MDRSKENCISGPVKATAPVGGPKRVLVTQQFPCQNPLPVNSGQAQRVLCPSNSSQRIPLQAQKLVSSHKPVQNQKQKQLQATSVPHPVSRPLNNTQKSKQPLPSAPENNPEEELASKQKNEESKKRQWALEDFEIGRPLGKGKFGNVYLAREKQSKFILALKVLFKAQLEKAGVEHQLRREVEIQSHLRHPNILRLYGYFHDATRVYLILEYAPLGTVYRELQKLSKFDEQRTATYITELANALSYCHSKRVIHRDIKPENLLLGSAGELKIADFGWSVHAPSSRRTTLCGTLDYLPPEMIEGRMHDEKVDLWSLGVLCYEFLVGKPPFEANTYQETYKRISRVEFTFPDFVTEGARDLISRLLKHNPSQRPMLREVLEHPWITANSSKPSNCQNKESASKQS
Description: Aurora A inhibitory action (33P-ATP kinase assay, Kemptide substrate). In kind it is biochemical. The conditions noted are these: 20 μM ATP, 30° C., 20 minutes. An outline of the steps: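 His-tagged Aurora A expressed in E. coli, Ni-purified; reaction in 50 mM Tris pH 7.4, 15 mM Mg acetate, 0.2 mM EDTA with 100 μM Kemptide, 20 μM ATP plus [γ-33P]ATP, 20 min at 30 °C. Phosphopeptide captured on P81 filters and counted by scintillation; DMSO control.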

Assay [1] deals with Human cervical cancer cells (HeLa S3). Description: Effect by combined use of drugs in cells (with paclitaxel), WST-8 method. Type of assay: cell-based. The conditions noted are these: three days; for inhibition at 0.1 µM: HeLa S3, compound 0.1 μM alone; for inhibition at 0.3 µM: HeLa S3, compound 0.3 μM alone; for inhibition at 1 µM: HeLa S3, compound 1.0 μM alone. An excerpt:
Method for Judging the Effect by Combined Use of Drugs in Cells
Fetal calf serum (FCS) was purchased from Moregate Biotech, DMEM medium from Invitrogen Corp., paclitaxel (tradename: Taxol) from Sigma-Aldrich, Inc., and WST-8 from Kishida Chemical Co., Ltd.
(§1) Human cervical cancer cells (HeLa S3) were obtained from the American Type Culture Collection (ATCC).
(§2) c) Method of Judging the Effect
Cells were suspended in a DMEM medium containing 10% FCS, and the cell suspension was dispensed to two 96-well plastic plates at a rate of 750 cells/100 microliters per well. The plates were incubated overnight in 5% CO2-95% air at 37° C. A drug was subjected to graded dilution in dimethylsulfoxide and flurther diluted with DMSO or with a DMEM medium containing 10% FCS and also containing 2 nM paclitaxel. Then, the dilutions were each dispensed to one of the plates on which cells had been disseminated, at a rate of 100 microliters per well. The final concentration of paclitaxel at this stage was 1 nM. Also, the concentrations in the case of sole administration of the compound according to the invention were 0.03, 0.1, 0.3, 1 and 3 μM. The plates were incubated for further three days in 5% CO2-95% air at 37° C. Cell growth after incubation was measured by the WST-8 method (H. Tominaga, et al., Anal. Commun., 36, 47-50 (1999)). Here, the WST-8 method refers to a method in which 20 microliters of a WST-8 reagent solution is added to each well, incubation is conducted at 37° C. for 45 minutes, the plate is stirred, and the amount of formazan produced is measured by a colorimetric method to determine the inhibitory rate of the drug. The growth inhibitory effects of paclitaxel and of the compound according to the invention were determined, with the value obtained in sole treatment of DMSO being defined as 0%.
Background: Formazan colour is commonly taken as a measure of viable cells.

For another assay, the target named is T2, Aurora B (Homo sapiens, UniProt Q96GD4).
T2 construct: histidine tag (N); made in house; host or cells: Escherichia coli BL21-CodonPlus(DE3)-RIL
Description: Aurora B inhibitory action (33P-ATP kinase assay, Kemptide substrate). Type of assay: biochemical. The conditions noted are these: 100 μM ATP, 30° C., 20 minutes. An outline of the steps:
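His-tagged Aurora B expressed in E. coli, reacted with 100 μM Kemptide, 100 μM ATP plus [γ-33P]ATP in Tris pH 7.4, 15 mM Mg acetate, 0.2 mM EDTA, 30 °C, 20 min. Peptide captured on P81 filters for scintillation counting; compounds added from DMSO dilutions.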

For assay [2], the system named is Human cervical cancer cells (HeLa S3). Description: Cell growth inhibitory effect, WST-8 method. In kind it is cell-based. Conditions: 72 h, HeLa S3, three days incubation.
Text: Method for Judging the Pharmaceutical Effect Using cells
Fetal calf serum (FCS) was purchased from Moregate Biotech, and DMEM medium was purchased from Invitrogen Corp. WST-8 was purchased from Kishida Chemical Co., Ltd.
as §1, §2
Cells were suspended in a DMEM medium containing 10% FCS, and the cell suspension was dispensed to a 96-well plastic plate at a rate of 750 cells/l 00 microliters per well. The plate was incubated overnight in 5% CO2-95% air at 37° C. A drug was subjected to graded dilution in dimethylsulfoxide and further diluted with a DMEM medium containing 10% FCS. Then, the dilution was dispensed to the plate on which cells had been disseminated, at a rate of 100 microliters per well. The plate was incubated for further three days in 5% CO2-95% air at 37° C. Cell growth after incubation was measured by the WST-8 method (H. Tominaga, et al., Anal. Commun., 36, 47-50 (1999)). Here, the WST-8 method refers to a method in which 20 microliters of a WST-8 reagent solution is added to each well, incubation is conducted at 37° C. for 45 minutes, the plate is stirred, and the amount of formazan produced is measured by a calorimetric method to determine the inhibitory rate of the drug. The concentration for 50% growth inhibition (EC50, IM) of the compound was determined.

Where [3] appears, read: HeLa S3, compound 0.1 μM + paclitaxel 1 nM.
Setting [4] is: Homo sapiens, HeLa S3, 72 h, read-out: Cell growth inhibitory effect by sole administration of the compound of Example (%).
The mark [5] stands for this setting: HeLa S3, compound 0.3 μM + paclitaxel 1 nM.
The mark [6] stands for this setting: HeLa S3, compound 1.0 μM + paclitaxel 1 nM.

The values below come from patent publication US20080027042A1, “Novel Aminopyridine Derivatives Having Aurora a Selective Inhibitory Action” (priority 2004, published 2008).

A word on the IC50: it is the concentration at which inhibition is half-maximal. Read a high IC50 as lower potency.

T2 sequence (Q96GD4 whole entry): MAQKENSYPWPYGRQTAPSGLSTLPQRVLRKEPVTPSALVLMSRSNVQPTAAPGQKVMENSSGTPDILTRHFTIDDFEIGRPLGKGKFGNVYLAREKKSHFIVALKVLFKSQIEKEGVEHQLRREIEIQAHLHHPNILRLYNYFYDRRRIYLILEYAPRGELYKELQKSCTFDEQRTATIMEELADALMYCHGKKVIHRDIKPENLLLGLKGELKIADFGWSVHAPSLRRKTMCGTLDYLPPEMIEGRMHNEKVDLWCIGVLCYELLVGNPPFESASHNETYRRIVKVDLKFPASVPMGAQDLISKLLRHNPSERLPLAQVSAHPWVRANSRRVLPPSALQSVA

Turning to `Cc1cccc(C(=O)N2CCN(Cc3cccc(Nc4nccs4)n3)CC2)c1F` [Example 8, 6-((4-(2-fluoro-3-methylbenzoyl)piperazin-1-yl)methyl)-N-thiazol-2-ylpyridin-2-amine], the 50% inhibitory concentration (IC50) on Aurora A came to 1.9 nM; at Aurora B, 1400 nM; in assay [2], 250 nM. Besides, the “Cell growth inhibitory effect by combined administration of paclitaxel and the compound of Example (%)” value (from here on “Cell growth inhibitory effect … (%)”) in assay [1] (setting [3]) came to 87.1%. Besides, in assay [1] (setting [4]), the inhibition at 0.1 µM worked out at 4.6%.

As to `O=C(c1cccc(Cl)c1Cl)N1CCN(Cc2cccc(Nc3nccs3)n2)CC1` [Example 6, 6-((4-(2,3-dichlorobenzoyl)piperazin-1-yl)methyl)-N-thiazol-2-ylpyridin-2-amine], the IC50 at Aurora A was 0.5 nM; on Aurora B, 200 nM; in assay [2], 400 nM. Further, the “Cell growth inhibitory effect … (%)” value in assay [1] (setting [5]) amounted to 89.0%. In addition, the inhibition at 0.3 µM in assay [1] (setting [4]) was 19.6%.

Take `O=C(c1cccc(Cl)c1F)N1C[C@@H]2C[C@H]1CN2Cc1cncc(Nc2cc[nH]n2)n1` [Example 46, 6-(((1S,4S)-5-(3-chloro-2-fluorobenzoyl)-2,5-diazabicyclo[2.2. 1]hept-2-yl)methyl)-N-1H-pyrazol-3-ylpyrazin-2-amine]: the values for the IC50 (at Aurora A; at Aurora B; in assay [2]) were 6.1 nM, 1400 nM and 4100 nM, respectively. Besides, the “Cell growth inhibitory effect … (%)” value in assay [1] (setting [6]) stood at 75.0%. Also, the inhibition at 1 µM in assay [1] (setting [4]) is 8.5%.

As to `O=C(c1cccc(Cl)c1F)N1CCN(Cc2cc(-c3ncn[nH]3)cc(Nc3nccs3)n2)CC1` [Example 108, 6-((4-(3-chloro-2-fluorobenzoyl)piperazin-1-yl)methyl)-N-thiazol-2-yl-4-(1H-1,2,4-triazol-5-yl)pyridin-2-amine], the IC50 was found to be 0.59 nM against Aurora A, 800 nM against Aurora B and 1200 nM in assay [2]. Further, the “Cell growth inhibitory effect … (%)” value in assay [1] (setting [6]) turned out to be 86.4%. The inhibition at 1 µM in assay [1] (setting [4]) turned out to be 17.2%.

Take `N#Cc1cc(CN2CCN(C(=O)c3cccc(Cl)c3F)CC2)nc(Nc2nccs2)c1` [Example 104, 2-((4-(3-chloro-2-fluorobenzoyl)piperazin-1-yl)methyl)-6-(thiazol-2-ylamino)isonicotinonitrile]: the IC50 on Aurora A was 1.1 nM; against Aurora B, 1400 nM; in assay [2], 990 nM. The “Cell growth inhibitory effect … (%)” value in assay [1] (setting [5]) amounted to 81.6%. The inhibition at 0.3 µM in assay [1] (setting [4]) is 6.3%.

`O=C(c1cccc(Cl)c1F)N1CCN(Cc2cccc(Nc3ncc(Cl)s3)n2)CC1` [Example 75, 6-((4-(3-chloro-2-fluorobenzoyl)piperazin-1-yl)methyl)-N-(5-chlorothiazol-2-yl)pyridin-2-amine]: the IC50 against Aurora A stood at 0.44 nM; against Aurora B, 89 nM; in assay [2] it was 11000 nM. Further, the “Cell growth inhibitory effect … (%)” value in assay [1] (setting [5]) is reported as 91.5%. In assay [1] (setting [4]), the inhibition at 0.3 µM worked out at 27.1%.

Regarding `N#Cc1cccc(C(=O)N2CCN(Cc3cccc(Nc4ncc(Cl)s4)n3)CC2)c1` [Example 71, 6-((4-(3-cyanobenzoyl)piperazin-1-yl)methyl)-N-(5-chlorothiazol-2-yl)pyridin-2-amine], the IC50 amounted to 3 nM against Aurora A, 370 nM at Aurora B and 3000 nM in assay [2]. In addition, the “Cell growth inhibitory effect … (%)” value in assay [1] (setting [6]) turned out to be 60.7%. The inhibition at 1 µM in assay [1] (setting [4]) stood at 13.2%.

Turning to `Cn1nnnc1-c1cc(CN2CCN(C(=O)c3cccc(Cl)c3F)CC2)nc(Nc2nccs2)c1` [Example 106, 6-((4-(3-chloro-2-fluorobenzoyl)piperazin-1-yl)methyl)-4-(1-methyl-1H-tetrazol-5-yl)-N-thiazol-2-ylpyridin-2-amine], the half-maximal inhibitory concentration (IC50) against Aurora A amounted to 0.88 nM; against Aurora B it was 400 nM; in assay [2] it was 400 nM. Further, the “Cell growth inhibitory effect … (%)” value in assay [1] (setting [3]) is recorded as 76.7%. For the same compound, in assay [1] (setting [4]), the inhibition at 0.1 µM is 6.1%.

`Cc1cc(Nc2cccc(CN3CCN(C(=O)c4cccc(C(F)(F)F)c4Cl)CC3)n2)n[nH]1` [Example 30, 6-((4-(2-chloro-3-(trifluoromethyl)benzoyl)piperazin-1-yl)methyl)-N-(5-methyl-1H-pyrazol-3-yl)pyridin-2-amine]: the IC50 at Aurora A amounted to 1.1 nM; against Aurora B, 320 nM; in assay [2], 2500 nM. The “Cell growth inhibitory effect … (%)” value in assay [1] (setting [6]) is 90.1%. Besides, the inhibition at 1 µM in assay [1] (setting [4]) stood at 29.1%.

For the compound `Cn1nnc(-c2cc(CN3CCN(C(=O)c4cccc(Cl)c4F)CC3)nc(Nc3nccs3)c2)n1` [Example 107, 6-((4-(3-chloro-2-fluorobenzoyl)piperazin-1-yl)methyl)-4-(2-methyl-2H-tetrazol-5-yl)-N-thiazol-2-ylpyridin-2-amine], the IC50 was found to be 0.32 nM at Aurora A, 190 nM against Aurora B and 210 nM in assay [2]. For the same compound, in assay [1] (HeLa S3, compound 0.03 μM + paclitaxel 1 nM), the “Cell growth inhibitory effect … (%)” value turned out to be 74.1%. Besides, the inhibition at 0.03 µM in assay [1] (Homo sapiens, HeLa S3, 72 h, HeLa S3, compound 0.03 μM alone, read-out: Cell growth inhibitory effect by sole administration of the compound of Example (%)) was 11.5%.

On to `O=C(c1cccc(Cl)c1F)N1CCN(Cc2cccc(Nc3nccs3)n2)CC1` [Example 5, 6-((4-(3-chloro-2-fluorobenzoyl)piperazin-1-yl)methyl)-N-thiazol-2-ylpyridin-2-amine], for which the values for the IC50 (at Aurora A; at Aurora B; in assay [2]) were 0.67 nM, 440 nM and 11000 nM, respectively. Also, the “Cell growth inhibitory effect … (%)” value in assay [1] (setting [3]) is recorded as 72.8%. Further, the inhibition at 0.1 µM in assay [1] (setting [4]) turned out to be 0%.

Consider `Cc1cc(Nc2cncc(CN3CCN(C(=O)c4cccc(Cl)c4F)CC3)n2)n[nH]1` [Example 56, 6-((4-(3-chloro-2-fluorobenzoyl)piperazin-1-yl)methyl)-N-(5-methyl-1H-pyrazol-3-yl)pyrazin-2-amine], for which the IC50 was 2.1 nM at Aurora A, 2900 nM against Aurora B and 1400 nM in assay [2]. Further, the “Cell growth inhibitory effect … (%)” value in assay [1] (setting [5]) was 81.8%. In addition, the inhibition at 0.3 µM in assay [1] (setting [4]) turned out to be 6.5%.
